# According to ChEMBL document CHEMBL4673276, “Inhibition of the NorA efflux pump of S. aureus by (Z)-5-(4-Fluorobenzylidene)-Imidazolidines” (Bioorg Med Chem Lett, 2021):
# Activity calls are given as the source filed them. The rule behind the calls is not given here.
# Columns and labels:
# Staphylococcus aureus [1] = assay: Antibacterial activity against Staphylococcus aureus SA-1199B; format: functional
# [2] = target: T1, Quinolone resistance protein NorA (Staphylococcus aureus) (UniProt P0A0J7); assay: Inhibition of NorA in staphylococcus aureus SA-1199B assessed as ethidium bromide accumulation
# T1 sequence (whole entry): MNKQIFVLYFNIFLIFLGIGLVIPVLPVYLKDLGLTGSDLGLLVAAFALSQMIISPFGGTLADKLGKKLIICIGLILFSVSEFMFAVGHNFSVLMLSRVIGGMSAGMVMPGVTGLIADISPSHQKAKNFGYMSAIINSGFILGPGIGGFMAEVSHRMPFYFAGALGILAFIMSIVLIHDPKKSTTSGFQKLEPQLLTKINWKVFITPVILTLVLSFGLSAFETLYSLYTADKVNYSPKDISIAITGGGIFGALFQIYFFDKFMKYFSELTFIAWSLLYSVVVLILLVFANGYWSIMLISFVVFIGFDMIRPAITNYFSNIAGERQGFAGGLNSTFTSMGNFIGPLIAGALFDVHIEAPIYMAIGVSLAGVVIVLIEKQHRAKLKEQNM
# [3] = target: T1, Quinolone resistance protein NorA (Staphylococcus aureus); assay: Inhibition of NorA in Staphylococcus aureus SA-1199B assessed as potentiation of norfloxacin-mediated antibacterial activity by measuring fold reduction in norfloxacin MIC
# [4] = Toxicity in brine shrimp assessed as mortality at 1 mg/ml; settings: artemia salina, read-out: Activity
# [5] = target: T1, Quinolone resistance protein NorA (Staphylococcus aureus); assay: Inhibition of NorA in Staphylococcus aureus SA-1199B assessed as potentiation of norfloxacin-mediated antibacterial activity by measuring fold reduction in ciprofloxacin MIC
# [6] = target: T1, Quinolone resistance protein NorA (Staphylococcus aureus); assay: Inhibition of NorA in Staphylococcus aureus SA-1199B assessed as potentiation of ciprofloxacin -mediated antibacterial activity by measuring maximal reduction in ciprofloxacin MIC
# [7] = target: T1, Quinolone resistance protein NorA (Staphylococcus aureus); assay: Inhibition of NorA in Staphylococcus aureus SA-1199B assessed as potentiation of norfloxacin-mediated antibacterial activity by measuring maximal reduction in norfloxacin MIC
# Staphylococcus aureus [8] = assay: Antibacterial activity against Staphylococcus aureus ATCC 25923; format: functional
# [9] = target: T1, Quinolone resistance protein NorA (Staphylococcus aureus); assay: Inhibition of NorA in staphylococcus aureus SA-1199B assessed as increase in fluorescence emission of ethidium bromide accumulation for 25 mins by fluorometric assays
structure (smiles),measurement,setting,value
O=C1NC(=O)/C(=C/c2ccccn2)N1,MIC,Staphylococcus aureus [1],≥ 1020 µg/mL
O=C1NC(=S)N/C1=C\c1cccs1,MIC,Staphylococcus aureus [1],≥ 1020 µg/mL
O=C1NC(=S)N/C1=C\c1ccc(F)cc1,inhibition,[2],Active
same,fold change (FC),[3],4
same,mortality at 1 mg/ml,[4],90%
same,fold change (FC),[5],3.2
same,MEC,[6],64 µg/mL
same,MEC,[7],64 µg/mL
same,MIC,Staphylococcus aureus [8],512 µg/mL
same,MIC,Staphylococcus aureus [1],512 µg/mL
same,inhibition,[9],Active
O=C1NC(=O)/C(=C/c2ccc(F)cc2)N1,inhibition,[2],Active
same,fold change (FC),[3],6.4
same,mortality at 1 mg/ml,[4],47%
same,fold change (FC),[5],3.2
same,MEC,[6],64 µg/mL
same,MEC,[7],64 µg/mL
same,MIC,Staphylococcus aureus [8],512 µg/mL
same,MIC,Staphylococcus aureus [1],512 µg/mL
same,inhibition,[9],Active
CN(C)CCCN1c2ccccc2Sc2ccc(Cl)cc21,inhibition,[9],Active
O=C1NC(=O)/C(=C/c2cccs2)N1,MIC,Staphylococcus aureus [1],≥ 1020 µg/mL
CCn1cc(C(=O)O)c(=O)c2cc(F)c(N3CCNCC3)cc21 [NORFLOXACIN],MIC,Staphylococcus aureus [1],64 µg/mL
O=C1NC(=S)N/C1=C\c1ccccn1,MIC,Staphylococcus aureus [1],≥ 1020 µg/mL
